Test results taken from patent publication USRE38117E1, “Trioxane dimer compound having antiproliferative and antitumor activities” (Hauser, Inc., priority 1995, dated 2003).

Experiments:
DU-145 = experiment: NCI 60 cell line screen (SRB), Prostate Cancer; format: cell-based; conditions: DU-145 (Prostate Cancer)
NCI-H23 = experiment: NCI 60 cell line screen (SRB), Non-Small Cell Lung Cancer; format: cell-based
[1] = Stability at room temperature; format: physicochemical; conditions: crystalline solid
60 cell line panel = conditions: cell line panels consisting of 60 lines; cited from earlier work
[2] = tested on: Ehrlich ascites tumor (EAT) cells; conditions: MTT assay, Woerdenbag et al. 1993; cited from earlier work
P. berghei = conditions: P. berghei-infected mice; Klayman 1985; cited from earlier work
P388 leukemia = conditions: NCI Report on NSC 369397; cited from earlier work
[3] = tested on: Plasmodium vivax and Plasmodium falciparum; conditions: 2099 cases of malaria, different dosage forms of QHS; 1979 study; cited from earlier work
P. falciparum = conditions: two Hanian strains; Ye et al. 1983; cited from earlier work
[4] = cited from earlier work

Compound	Log10GI50 (DU-145) [M]	Log10LC50 (DU-145) [M]	Log10TGI (DU-145) [M]	Log10GI50 (NCI-H23) [M]	Log10LC50 (NCI-H23) [M]	Log10TGI (NCI-H23) [M]	stability [1]	anticancer activity (60 cell line panel)	ID50 / IC50 (drug concentration causing 50% growth inhibition of the tumor cells) [2] [µM]	SD90 (parasitemia 90 percent suppressed) (P. berghei) [mg/kg]	activity against P388 leukemia (P388 leukemia)	clinical outcome [3]	potency in vitro compared with chloroquine (P. falciparum)	solubility in water [4]
CC(=O)O[C@H]1C(=O)[C@@]2(C)[C@H]([C@H](OC(=O)c3ccccc3)[C@]3(O)C[C@H](OC(=O)[C@H](O)[C@@H](NC(=O)c4ccccc4)c4ccccc4)C(C)=C1C3(C)C)[C@]1(OC(C)=O)CO[C@@H]1C[C@@H]2O [Paclitaxel, paclitaxel, reference compound]	−9.38	>−4.00	>−4.00											
COC1OC2(C)CCC3CCCC(CCOC(=O)c4cccc(C(=O)OCCC5CCCC6CCC7(C)OOC56C(OC)O7)c4)C31OO2 (centres unmarked) [Compound 10, Trioxane Bis-ester Dimer]	−4.53	>−4.30	>−4.30	−6.29	>−4.30	>−4.30	stable for prolonged periods at room temperature							
COC1OC2(C)CCC3CCCC(CCOCCC4CCCC5CCC6(C)OOC45C(OC)O6)C31OO2 (centres unmarked) [Compound 6, Trioxane Ether Dimer]				−6.34	>−4.00	>−4.00								
COC1OC2(C)CCC3CCCC(CCOC(=O)c4ccc(C(=O)OCCC5CCCC6CCC7(C)OOC56C(OC)O7)cc4)C31OO2 (centres unmarked) [Compound 11, Bis-ester Dimer]				−6.03	>−4.00	−4.19								
C[C@@H]1CC[C@H]2[C@@H](C)C(=O)O[C@@H]3O[C@@]4(C)CC[C@@H]1[C@]32OO4 [QHS, 3,6,9-trimethyl-9,10b-epidioxyperhydropyrano[4,3,2-jk]benzoxepin-2-one, reference compound]				>−4.00	>−4.00	>−4.00		very little anticancer activity	29.8	6.20	inactive	clinical cure of all patients	comparable to that of chloroquine	insolubility in water
